Test results as given in patent US20240158446A1, “CYCLIC COMPOUND HAVING SELECTIVE INHIBITORY ACTION ON KRAS OVER HRAS AND NRAS” (CHUGAI SEIYAKU KABUSHIKI KAISHA, priority 2021, published 2024).
Where a SMILES comes first, the peptide text is derived from it. Bridges are numbered along the chain shown (N, C = ends). [ ]: non-standard residue; d: D form. The star is where a group is joined. hPhe(3-Cl-4-CF3) = N[C@@H](CCc1ccc(C(F)(F)F)c(Cl)c1)C(=O)O; NPrPhe(4-CF3) = CCCN[C@@H](Cc1ccc(C(F)(F)F)cc1)C(=O)O; NMeGly(cPent) = CN[C@H](C(=O)O)C1CCCC1; Ac4c(3,3-Me2) = CC1(C)CC(N)(C(=O)O)C1; NMeD = CN[C@@H](CC(=O)O)C(=O)O; NMeL = CN[C@@H](CC(C)C)C(=O)O; Morpholide = C1CN(*)CCO1; Ac5c = NC1(C(=O)O)CCCC1; NEtG = CCNCC(=O)O; Sar = CNCC(=O)O; Propyl = CCC*

Key:
[1] = target: GDP-bound HRAS wild-type protein (Homo sapiens, UniProt P01112); assay: Binding to HRAS by surface plasmon resonance (SPR), Single Cycle Kinetics; details: ratio of KD for GDP-bound HRAS wild-type protein to KD for KRAS, SPR
GDP-bound HRAS wild-type protein, sequence (P01112 whole entry): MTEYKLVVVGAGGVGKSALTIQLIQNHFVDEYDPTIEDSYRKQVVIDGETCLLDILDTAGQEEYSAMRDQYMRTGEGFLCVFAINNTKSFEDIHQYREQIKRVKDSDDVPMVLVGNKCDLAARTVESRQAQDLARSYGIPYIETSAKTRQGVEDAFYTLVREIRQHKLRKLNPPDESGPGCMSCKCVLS

[2] = target: GDP-bound KRAS wild-type protein (Homo sapiens, UniProt P01116); assay: Binding to KRAS by surface plasmon resonance (SPR), Single Cycle Kinetics; details: SPR, Single Cycle Kinetics, GDP-bound KRAS wild-type protein; read-out: KRAS KD
GDP-bound KRAS wild-type protein, sequence (P01116 whole entry): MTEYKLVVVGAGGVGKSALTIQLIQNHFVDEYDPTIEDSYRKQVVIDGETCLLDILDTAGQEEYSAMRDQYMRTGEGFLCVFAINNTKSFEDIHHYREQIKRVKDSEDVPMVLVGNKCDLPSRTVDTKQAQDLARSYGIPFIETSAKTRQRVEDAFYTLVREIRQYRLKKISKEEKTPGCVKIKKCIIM

[3] = target: GDP-bound NRAS wild-type protein (Homo sapiens, UniProt P01111); assay: Binding to NRAS by surface plasmon resonance (SPR), Single Cycle Kinetics; details: ratio of KD for GDP-bound NRAS wild-type protein to KD for KRAS, SPR
GDP-bound NRAS wild-type protein, sequence (P01111 whole entry): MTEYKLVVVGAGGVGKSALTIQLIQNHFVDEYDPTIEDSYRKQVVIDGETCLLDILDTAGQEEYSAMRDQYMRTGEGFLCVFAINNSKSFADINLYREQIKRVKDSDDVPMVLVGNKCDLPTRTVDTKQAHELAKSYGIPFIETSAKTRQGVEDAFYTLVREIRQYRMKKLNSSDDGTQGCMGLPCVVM

[4] = system: human lung cancer strain NCI-H441; assay: cells; details: NCI-H441, 96 h, read-out: NCI-H441 IC50 (nM), NCI-H441 cell proliferation, 4 days, CellTiter-Glo;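 also: cell proliferation inhibition after four days measured by CellTiter-Glo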

SMILES | HRAS/KRAS (KD ratio) [1] | Kd [2] [nM] | NRAS/KRAS (KD ratio) [3] | IC50 [4] [nM]
CCCO[C@H](C)[C@@H]1NC(=O)[C@H](CC(C)C)N(C)C(=O)C[C@@H](C(=O)N(C)C)N(C)C(=O)[C@H](C2CCCC2)N(C)C(=O)C2(CC(C)(C)C2)NC(=O)[C@@H]2C[C@@H](OCC)CN2C(=O)[C@H](CCc2cc(F)c(C(F)(F)F)c(F)c2)NC(=O)CN(C)C(=O)[C@H](Cc2ccc(C(F)(F)F)cc2)N2CC/C=C\C[C@@H](C2=O)N(C)C(=O)CN(C)C1=O [PP1921] | A (a compound having 10 or more and less than 20 is denoted as A) | 0.055 | A (a compound having 10 or more and less than 20 is denoted as A) | 7.8
CCCN(C)C(=O)[C@@H]1CC(=O)N(C)[C@@H](CC(C)C)C(=O)N[C@@H](C2CCOCC2)C(=O)N(C)CC(=O)N(C)[C@H]2C/C=C\CCN(C2=O)[C@@H](Cc2ccc(C(F)(F)F)cc2)C(=O)N(C)CC(=O)N[C@@H](CCc2cc(F)c(C(F)(F)F)c(F)c2)C(=O)N2C[C@H](OCC)C[C@H]2C(=O)NC2(CC(C)(C)C2)C(=O)N(C)[C@@H](C2CCCC2)C(=O)N1C [PP1923] | A (a compound having 10 or more and less than 20 is denoted as A) | 3.4 | A (a compound having 10 or more and less than 20 is denoted as A) | 68
CCO[C@@H]1C[C@H]2C(=O)NC3(CC(F)(F)C3)C(=O)N(C)[C@@H](C(CC)CC)C(=O)N3CCC[C@@H]3CC(=O)N(C)[C@@H](CC3CC3)C(=O)N[C@@H]([C@@H](C)CC)C(=O)N(C)CC(=O)N(C)[C@H]3C/C=C\CCN(C3=O)[C@@H](Cc3ccc(C(F)(F)F)cc3)C(=O)N(C)CC(=O)N[C@@H](CCc3cc(F)c(C(F)(F)F)c(F)c3)C(=O)N2C1 [PP1614] | A (a compound having 10 or more and less than 20 is denoted as A) | 1.1 | A (a compound having 10 or more and less than 20 is denoted as A) | 54.2
CCO[C@@H]1C[C@H]2C(=O)NC3(CC(C)(C)C3)C(=O)N(C)[C@@H](C3CCCC3)C(=O)N(C)[C@H](C(=O)N(C)C)CC(=O)N(C)[C@@H](CC)C(=O)N[C@@H]([C@@H](C)CC)C(=O)N(C)CC(=O)N(C)[C@H]3C/C=C\CCN(C3=O)[C@@H](Cc3ccc(C)cc3)C(=O)N(C)CC(=O)N[C@@H](CCc3ccc(C(F)(F)F)c(Cl)c3)C(=O)N2C1 [PP1878] | A (a compound having 10 or more and less than 20 is denoted as A) | 0.063 | A (a compound having 10 or more and less than 20 is denoted as A) | 8.8
CCC[C@H]1C(=O)N[C@@H]([C@@H](C)CC)C(=O)N(C)CC(=O)N(C)[C@H]2C/C=C\CCN(C2=O)[C@@H](Cc2ccc(C)cc2)C(=O)N(C)CC(=O)N[C@@H](CCc2ccc(C(F)(F)F)c(Cl)c2)C(=O)N2C[C@H](OCC)C[C@H]2C(=O)NC2(CC(C)(C)C2)C(=O)N(C)[C@@H](C2CCCC2)C(=O)N(C)[C@H](C(=O)N(C)C)CC(=O)N1C [PP1896] | B (a compound having 3 or more and less than 10 is denoted as B) | 0.06 | A (a compound having 10 or more and less than 20 is denoted as A) | 5.3
CCCOC[C@H]1C(=O)N[C@@H]([C@@H](C)CC)C(=O)N(C)CC(=O)N(C)[C@H]2C/C=C\CCN(C2=O)[C@@H](Cc2ccc(C(F)(F)F)cc2)C(=O)N(C)CC(=O)N[C@@H](CCc2cc(F)c(C(F)(F)F)c(F)c2)C(=O)N2C[C@H](F)C[C@H]2C(=O)NC2(CC(C)(C)C2)C(=O)N(C)[C@@H](C2CCCC2)C(=O)N(C)[C@H](C(=O)N(C)CCC)CC(=O)N1C [PP1698] | A (a compound having 10 or more and less than 20 is denoted as A) | 0.075 | A (a compound having 10 or more and less than 20 is denoted as A) | 5.1
CC[C@H](C)[C@@H]1NC(=O)[C@H](CC2CC2)N(C)C(=O)C[C@@H](C(=O)N(C)C)N(C)C(=O)[C@H](C2CCCC2)N(C)C(=O)C2(CCC2)N(C)C(=O)[C@@H]2CCCN2C(=O)[C@H](CCc2cc(F)c(C(F)(F)F)c(F)c2)NC(=O)CN(C)C(=O)[C@H](Cc2ccc(C)cc2)N2CC/C=C\C[C@@H](C2=O)N(C)C(=O)[C@@H]2CCCN2C1=O [PP1798] | B (a compound having 3 or more and less than 10 is denoted as B) | 0.15 | A (a compound having 10 or more and less than 20 is denoted as A) | 7.8
CCO[C@@H]1C[C@H]2C(=O)NC3(CC(F)(F)C3)C(=O)N(C)[C@@H](C3CCCC3)C(=O)N(C)[C@H](C(=O)N(C)CC)CC(=O)N(C)[C@@H](CC3CC3)C(=O)N[C@@H]([C@@H](C)CC)C(=O)N(C)CC(=O)N(C)[C@H]3C/C=C\CCN(C3=O)[C@@H](Cc3ccc(C(F)(F)F)cc3)C(=O)N(C)CC(=O)N[C@@H](CCc3cc(F)c(C(F)(F)F)c(F)c3)C(=O)N2C1 [PP1738] | A (a compound having 10 or more and less than 20 is denoted as A) | 0.071 | AA (a compound having 20 or more is denoted as AA) | 5.1
CCCO[C@H](C)[C@@H]1NC(=O)[C@H](CC(C)C)N(C)C(=O)C[C@@H](C(=O)N2CCOCC2)N(C)C(=O)[C@H](C2CCCC2)N(C)C(=O)C2(CC(C)(C)C2)NC(=O)[C@@H]2CCCN2C(=O)[C@H](CCc2ccc(C(F)(F)F)c(Cl)c2)NC(=O)CN(C)C(=O)[C@H](Cc2ccc(C(F)(F)F)cc2)N(CCC)C(=O)CN(C)C(=O)CN(C)C1=O [PP1965] ([NMeL]T(Propyl)[Sar][Sar][NPrPhe(4-CF3)][Sar][hPhe(3-Cl-4-CF3)]P[Ac4c(3,3-Me2)][NMeGly(cPent)][NMeD]-Morpholide; lactam N-11) | B (a compound having 3 or more and less than 10 is denoted as B) | 0.3 | B (a compound having 3 or more and less than 10 is denoted as B) | 17.4
CCCN1C(=O)CN(CC)C(=O)CNC(=O)[C@H]([C@@H](C)CC)NC(=O)[C@H](CC(C)C)N(C)C(=O)C[C@@H](C(=O)N2CCOCC2)N(C)C(=O)[C@H](C2CCCC2)N(C)C(=O)C2(CCCC2)NC(=O)[C@@H]2CCCN2C(=O)[C@H](CCc2ccc(C(F)(F)F)c(Cl)c2)NC(=O)CN(C)C(=O)[C@@H]1Cc1ccc(C(F)(F)F)cc1 [PP1968] ([NMeL]IG[NEtG][NPrPhe(4-CF3)][Sar][hPhe(3-Cl-4-CF3)]P[Ac5c][NMeGly(cPent)][NMeD]-Morpholide; lactam N-11) | C (A compound having a KD ratio of 0.1 or more and less than 3 is denoted as C) | 0.76 | C (A compound having a KD ratio of 0.1 or more and less than 3 is denoted as C) | 13.5
CC[C@H](C)[C@@H]1NC(=O)[C@H](CC)N(C)C(=O)C[C@@H](C(=O)N(CC)CC)N(C)C(=O)[C@H](C2CCCC2)N(C)C(=O)C2(CC(C)(C)C2)NC(=O)[C@@H]2C[C@H](C)CN2C(=O)[C@H](CCc2ccc(C(F)(F)F)c(OC)c2)NC(=O)CN(C)C(=O)[C@H](Cc2ccc(C)cc2)N2CC/C=C\C[C@@H](C2=O)N(C)C(=O)CN(C)C1=O [PP1839] | B (a compound having 3 or more and less than 10 is denoted as B) | 0.31 | A (a compound having 10 or more and less than 20 is denoted as A) | 24.3
CCO[C@@H]1C[C@H]2C(=O)N(C)C3(CCC3)C(=O)N(C)[C@@H](C3CCCC3)C(=O)N(C)[C@H](C(=O)N(C)C)CC(=O)N(C)[C@@H](CC(C)C)C(=O)N[C@@H]([C@@H](C)CC)C(=O)N(C)CC(=O)N(C)[C@H]3C/C=C\CCN(C3=O)[C@@H](Cc3ccc(C)cc3)C(=O)N(C)CC(=O)N[C@@H](CCc3cc(F)c(C(F)(F)F)c(F)c3)C(=O)N2C1 [PP1790] | B (a compound having 3 or more and less than 10 is denoted as B) | 0.03 | A (a compound having 10 or more and less than 20 is denoted as A) | 1.7
CCC[C@H]1C(=O)N[C@@H]([C@@H](C)CC)C(=O)N(C)CC(=O)N(C)[C@H]2C/C=C\CCN(C2=O)[C@@H](Cc2ccc(C(F)(F)F)cc2)C(=O)N(C)CC(=O)N[C@@H](CCc2cc(F)c(C(F)(F)F)c(F)c2)C(=O)N2C[C@H](OCC)C[C@H]2C(=O)NC2(CC(F)(F)C2)C(=O)N(C)[C@@H](C2CCCC2)C(=O)N(C)[C@H](C(=O)N(C)CCC)CC(=O)N1C [PP1736] | A (a compound having 10 or more and less than 20 is denoted as A) | 0.13 | A (a compound having 10 or more and less than 20 is denoted as A) | 3.6
CCC[C@H]1C(=O)N[C@@H]([C@@H](C)CC)C(=O)N2CC[C@H]2C(=O)N(C)[C@H]2C/C=C\CCN(C2=O)[C@@H](Cc2ccc(C(F)(F)F)cc2)C(=O)N(C)CC(=O)N[C@@H](CCc2cc(F)c(C(F)(F)F)c(F)c2)C(=O)N2C[C@H](OCC)C[C@H]2C(=O)NC2(CC(C)(C)C2)C(=O)N(C)[C@@H](C2CCCC2)C(=O)N(C)[C@H](C(=O)N(C)C)CC(=O)N1C [PP1925] | A (a compound having 10 or more and less than 20 is denoted as A) | 0.23 | A (a compound having 10 or more and less than 20 is denoted as A) | 9.7
CCCC[C@H]1C(=O)N[C@@H]([C@@H](C)CC)C(=O)N(C)CC(=O)N(C)[C@H]2C/C=C\CCN(C2=O)[C@@H](Cc2ccc(C(F)(F)F)cc2)C(=O)N(C)CC(=O)N[C@@H](CCc2ccc(C(F)(F)F)c(Cl)c2)C(=O)N2C[C@H](OCC)C[C@H]2C(=O)NC2(CC(C)(C)C2)C(=O)N(C)[C@@H](C2CCCC2)C(=O)N(C)[C@H](C(=O)N(C)C)CC(=O)N1C [PP1750] | B (a compound having 3 or more and less than 10 is denoted as B) | 0.069 | A (a compound having 10 or more and less than 20 is denoted as A) | 3.4
